Here are results for five compounds from patent US20210038563A1, “NEW SPIRONOLACTONE FORMULATIONS AND THEIR USE” (Apidel SA, priority 2018, published 2021).

One series relates to MR. Particulars: Corvol et al. [19]; cited from earlier work.
The target of series [1] is mineralocorticoid receptor. Particulars: Sutanto et al. [20]; read-out: half maximal inhibitory concentrations (IC50); cited from earlier work.
Series [2] relates to dexamethasone-induced delayed corneal wound healing. In words: Corneal re-epithelialization evaluation (fluorescein test) after corneal de-epithelialization. In kind it is in vivo, New Zealand white rabbit. Particulars: Day 4; mean ± SD. As to the method:
Fifty male albino New Zealand rabbits weighing approximately 2.3-3.0 kg were included for this study (Iris Pharma, France). Animals were housed individually in standard cages, under identical environmental conditions. The temperature was kept at 15-21° C. and the relative humidity was >45%. Rooms were continuously ventilated (>15 air volumes per hour). Temperature and relative humidity were continuously controlled and recorded. Animals were routinely exposed (in-cage) to a 10-200 1× light in a 12-hour light/dark cycle (from 7:00 a.m. to 7:00 p.m.). Animals had enrichment and free access to food (150 g/day) and were allowed water ad libitum. All animals were healthy and free of clinically observable ocular abnormalities throughout the study. […]
The animals were anesthetized by an intramuscular injection of a ketamine-xylazine mixture. […] De-epithelialization was monitored by fluorescein staining. […]
The size of the corneal wound was evaluated using the fluorescein test immediately after ocular debridement and once a day before the first instillation of the day. A baseline was recorded before the de-epithelialization. […] Images of the corneal lesion (area stained by fluorescein) were taken using a CCD camera and analyzed using image J software. […]

For series [3] the following is noted: [26, 27]; cited from earlier work.

Each structure is given as a SMILES string. Bounds are passed on as bounds.

Take `C[C@]12CCC(=O)C=C1C=C[C@@H]1[C@@H]2CC[C@@]2(C)[C@H]1CC[C@@]21CCC(=O)O1` [CAN, Canrenone]: the “Affinity for the MR, fold lower as compared to SPL” value in the series on MR is listed as 10 fold.
With `C[C@]12CCC(=O)C=C1C=C[C@@H]1[C@@H]2CC[C@@]2(C)[C@H]1CC[C@@]2(O)CCC(=O)O` [CANK, potassium canrenoate], in the series with MR, the “Affinity for the MR” value was “very low affinity”. The IC50 in series [1] was over 1000 nM.
For the compound `C[C@@H]1C[C@H]2[C@@H]3CCC4=CC(=O)C=C[C@]4(C)[C@@]3(F)[C@@H](O)C[C@]2(C)[C@@]1(O)C(=O)CO` [DXM, Dexamethasone], in series [2], the “Mean percentage of re-epithelialization” value is recorded as 84.6±13.9%.
For `CC(=O)S[C@@H]1CC2=CC(=O)CC[C@]2(C)[C@H]2CC[C@@]3(C)[C@@H](CC[C@@]34CCC(=O)O4)[C@H]12` [SPL, 7α-Acetylthio-17α-hydroxy-3-oxopregn-4-ene-21-carboxylic acid γ-lactone], the plasma half-life in series [3] is 1.4 h.
As to `CS[C@@H]1CC2=CC(=O)CC[C@]2(C)[C@H]2CC[C@@]3(C)[C@@H](CC[C@@]34CCC(=O)O4)[C@H]12` [TMSPL, 7α-thiomethylspironolactone], the plasma half-life in series [3] is listed as 13.8 h.
